Results: the supplement of paper PMC6045584
± gives the standard deviation of the averaged measurements.

Columns and labels:
[1] = compound: Cc1nc(Nc2n[nH]c3c2CN(C(=O)N[C@H](CN(C)C)c2ccccc2)C3(C)C)c2sccc2n1; experiment: surviving fraction relative to DMSO-only wells; higher = less growth inhibition; conditions: exposure time: 5 days
In short: (§1)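 Log-phase tumour cell lines, 250–500 cells per well in 384-well plates, received inhibitors at 0.5, 1, 5, 10, 50, 100, 500 and 1000 nM continuously for five days, starting 24 hours after seeding. Viability was quantified with CellTiter-Glo luminescence and normalised to the median of DMSO-only wells to give surviving fraction. Three screens were run per line, and a line stayed in only with replicate Pearson r >0.7 and median Z' >0.3.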

PLX-4720 = compound: CCCS(=O)(=O)Nc1ccc(F)c(C(=O)c2c[nH]c3ncc(Cl)cc23)c1F [PLX-4720]; experiment: as above; conditions: exposure time: 5 days
In short: as §1

| Test System | surviving fraction ([1]; 0.5 nM) | surviving fraction ([1]; 1 nM) | surviving fraction ([1]; 5 nM) | surviving fraction ([1]; 10 nM) | surviving fraction ([1]; 50 nM) | surviving fraction ([1]; 100 nM) | surviving fraction ([1]; 500 nM) | surviving fraction ([1]; 1000 nM) | surviving fraction (PLX-4720; 0.5 nM) | surviving fraction (PLX-4720; 1 nM) | surviving fraction (PLX-4720; 5 nM) | surviving fraction (PLX-4720; 10 nM) | surviving fraction (PLX-4720; 50 nM) | surviving fraction (PLX-4720; 100 nM) | surviving fraction (PLX-4720; 500 nM) | surviving fraction (PLX-4720; 1000 nM) |
| --- | --- | --- | --- | --- | --- | --- | --- | --- | --- | --- | --- | --- | --- | --- | --- | --- |
| HCC38 BREAST | 1.03 ± 0.25 | 0.943 ± 0.17 | 0.291 ± 0.038 | 0.255 ± 0.029 | 0.182 ± 0.02 | 0.186 ± 0.034 | 0.178 ± 0.034 | 0.0973 ± 0.011 | 0.812 ± 0.15 | 0.836 ± 0.19 | 0.893 ± 0.14 | 0.911 ± 0.17 | 1.03 ± 0.11 | 1.05 ± 0.28 | 1.12 ± 0.1 | 1.03 ± 0.28 |
| HCC70 BREAST | 0.996 ± 0.059 | 0.895 ± 0.096 | 0.275 ± 0.035 | 0.089 ± 0.014 | 0.0497 ± 0.0061 | 0.038 ± 0.003 | 0.032 ± 0.0089 | 0.0307 ± 0.0061 | 1.02 ± 0.06 | 0.984 ± 0.14 | 1.04 ± 0.034 | 1.02 ± 0.034 | 1.03 ± 0.068 | 1.03 ± 0.091 | 1.03 ± 0.12 | 0.963 ± 0.082 |
| HCC78 LUNG | 0.721 ± 0.087 | 0.967 ± 0.1 | 0.323 ± 0.047 | 0.454 ± 0.14 | 0.263 ± 0.027 | 0.231 ± 0.03 | 0.203 ± 0.036 | 0.21 ± 0.041 | 0.318 ± 0.06 | 1.01 ± 0.17 | 0.964 ± 0.06 | 1.05 ± 0.3 | 0.761 ± 0.13 | 1.01 ± 0.077 | 0.869 ± 0.04 | 0.951 ± 0.12 |
| HCC202 BREAST | 1.27 ± 0.26 | 1.12 ± 0.07 | 0.855 ± 0.24 | 0.754 ± 0.042 | 0.58 ± 0.028 | 0.501 ± 0.12 | 0.226 ± 0.038 | 0.14 ± 0.049 | 0.964 ± 0.1 | 1.22 ± 0.12 | 1.08 ± 0.17 | 1.09 ± 0.046 | 1.2 ± 0.11 | 1.46 ± 0.26 | 1.12 ± 0.28 | 1.06 ± 0.33 |
| HCC1806 BREAST | 0.842 ± 0.06 | 0.521 ± 0.022 | 0.0733 ± 0.0085 | 0.0613 ± 0.0081 | 0.0497 ± 0.0047 | 0.0377 ± 0.0055 | 0.024 ± 0.001 | 0.0237 ± 0.00058 | 0.727 ± 0.073 | 0.808 ± 0.067 | 0.861 ± 0.069 | 0.879 ± 0.042 | 0.858 ± 0.09 | 1.02 ± 0.052 | 0.855 ± 0.13 | 0.871 ± 0.076 |
| HCC1954 BREAST | 1 ± 0.05 | 0.88 ± 0.12 | 0.43 ± 0.044 | 0.466 ± 0.0085 | 0.487 ± 0.023 | 0.493 ± 0.018 | 0.428 ± 0.028 | 0.253 ± 0.035 | 0.487 ± 0.0099 | 0.487 ± 0.028 | 0.455 ± 0.038 | 0.452 ± 0.053 | 0.55 ± 0.029 | 0.476 ± 0.027 | 0.466 ± 0.072 | 0.403 ± 0.0074 |
| HCT15 LARGE INTESTINE | 0.998 ± 0.043 | 1.019 ± 0.009 | 1.04 ± 0.03 | 1.04 ± 0.011 | 0.869 ± 0.061 | 1.02 ± 0.036 | 0.172 ± 0.013 | 0.428 ± 0.023 | 0.419 ± 0.018 | 0.875 ± 0.043 | 0.755 ± 0.072 | 0.866 ± 0.029 | 0.513 ± 0.025 | 0.926 ± 0.046 | 0.886 ± 0.077 | 1.03 ± 0.026 |
| HELA CERVIX | 1.1 ± 0.061 | 1.11 ± 0.056 | 0.936 ± 0.026 | 0.741 ± 0.02 | 0.4922 ± 0.0018 | 0.478 ± 0.0081 | 0.406 ± 0.016 | 0.341 ± 0.026 | 0.96 ± 0.039 | 0.947 ± 0.051 | 0.957 ± 0.069 | 0.953 ± 0.022 | 1 ± 0.046 | 1.01 ± 0.025 | 1 ± 0.055 | 1.06 ± 0.058 |
| HMLE3 BREAST | 1.01 ± 0.11 | 0.883 ± 0.026 | 0.295 ± 0.02 | 0.144 ± 0.0049 | 0.0967 ± 0.012 | 0.092 ± 0.0036 | 0.066 ± 0.0082 | 0.055 ± 0.002 | 0.225 ± 0.027 | 0.8523 ± 0.007 | 0.721 ± 0.039 | 0.851 ± 0.049 | 0.556 ± 0.041 | 1.03 ± 0.031 | 1.14 ± 0.036 | 1.15 ± 0.085 |
| HMT3552 BREAST | 0.986 | 0.77 | 0.376 | 0.287 | 0.219 | 0.212 | 0.17 | 0.136 | 1.04 | 0.993 | 1.01 | 0.978 | 1.23 | 1.17 | 1.11 | 1.1 |
| HOS BONE | 1.02 ± 0.018 | 0.957 ± 0.014 | 0.583 ± 0.02 | 0.409 ± 0.03 | 0.234 ± 0.015 | 0.233 ± 0.0055 | 0.194 ± 0.0038 | 0.112 ± 0.0079 | 0.92 ± 0.012 | 0.928 ± 0.014 | 0.935 ± 0.017 | 0.964 ± 0.0053 | 0.992 ± 0.015 | 0.995 ± 0.0027 | 0.96 ± 0.0078 | 1.01 ± 0.019 |
| HOSMNG BONE | 0.981 ± 0.063 | 0.995 ± 0.065 | 1.02 ± 0.11 | 0.944 ± 0.025 | 0.821 ± 0.042 | 0.622 ± 0.029 | 0.399 ± 0.024 | 0.253 ± 0.018 | 0.959 ± 0.026 | 0.962 ± 0.025 | 1 ± 0.061 | 0.985 ± 0.041 | 0.991 ± 0.16 | 1.04 ± 0.079 | 1 ± 0.12 | 1.03 ± 0.092 |
| HS57T BREAST | 0.895 ± 0.062 | 0.685 ± 0.022 | 0.366 ± 0.02 | 0.305 ± 0.019 | 0.287 ± 0.018 | 0.255 ± 0.0075 | 0.151 ± 0.02 | 0.0643 ± 0.0085 | 0.9 ± 0.06 | 0.898 ± 0.057 | 0.947 ± 0.069 | 0.964 ± 0.065 | 0.921 ± 0.059 | 0.982 ± 0.03 | 0.92 ± 0.019 | 0.962 ± 0.054 |
| HS578T BREAST | 0.767 ± 0.024 | 0.713 ± 0.019 | 0.506 ± 0.064 | 0.504 ± 0.05 | 0.374 ± 0.056 | 0.37 ± 0.049 | 0.186 ± 0.029 | 0.095 ± 0.013 | 0.925 ± 0.054 | 0.912 ± 0.021 | 0.908 ± 0.1 | 0.809 ± 0.16 | 0.978 ± 0.13 | 0.92 ± 0.055 | 0.943 ± 0.058 | 0.789 ± 0.11 |
| HSSYII SYNOVIAL | 0.679 ± 0.029 | 0.789 ± 0.13 | 0.271 ± 0.021 | 0.281 ± 0.0072 | 0.216 ± 0.007 | 0.215 ± 0.018 | 0.0975 ± 0.0058 | 0.138 ± 0.0053 | 0.231 ± 0.018 | 0.844 ± 0.038 | 0.694 ± 0.065 | 0.838 ± 0.03 | 0.385 ± 0.0033 | 0.9 ± 0.026 | 0.827 ± 0.016 | 0.987 ± 0.046 |
| HT1080 SOFT TISSUE | 0.98 ± 0.024 | 0.859 ± 0.018 | 0.295 ± 0.0038 | 0.249 ± 0.013 | 0.194 ± 0.0046 | 0.171 ± 0.0076 | 0.111 ± 0.015 | 0.087 ± 0.0078 | 0.981 ± 0.049 | 0.994 ± 0.073 | 0.988 ± 0.025 | 0.989 ± 0.031 | 1.01 ± 0.038 | 0.979 ± 0.031 | 0.934 ± 0.042 | 0.885 ± 0.033 |
